Experimental data published in PMC11313435, “Identification of Antioxidant Methyl Derivatives of Ortho-Carbonyl Hydroquinones That Reduce Caco-2 Cell Energetic Metabolism and Alpha-Glucosidase Activity” (International Journal of Molecular Sciences, 2024).
Entries after “also recorded” stand apart in the source; their conditions may differ.

Experiments:
α-glucosidase = α-glucosidase inhibitory activity (p-nitrophenyl α-D-glucopyranoside substrate); assay type: biochemical; conditions: for pIC50 (α-glucosidase): pIC50 = −log[IC50], Figure 2A; for IC50: pH 6.9, 37 °C, 15 min, mean ± SD of three experiments, read-out: Inhibition of α-Glucosidase Activity IC50
Procedure: The inhibition of α-glucosidase was determined following a previous method [62] using p-nitrophenyl α-D-glucopyranoside as a substrate. The reaction mixture contained 160 µL of 0.1 M sodium phosphate buffer (pH = 6.9), 5 µL of enzyme (5.46 U/mL), and polyphenolic extract (0.17–1.36 µg/mL). After the pre-incubation of the reaction mixture on ice for 5 min, the enzyme reaction was started by adding 5 µL of 25 mM p-nitrophenyl α-D-glucopyranoside into this mixture. The reaction was incubated for 15 min at 37 °C. Then, 80 µL of 0.2 M sodium carbonate was added. The absorbance was measured at 405 nm in a microplate reader (Biotek ELx808, Agilent, Santa Clara, CA, USA). Enzyme inhibition was calculated using the following equation: % inhibition = (A0 − As)/A0 × 100, where A0 is the absorbance of the control (blank, without extract) and As is the absorbance in presence of the extract. IC50 values denote the µg GAE/mL required to inhibit the enzyme by 50%.

Caco-2 cells [1] = assay: Extracellular acidification rate and oxygen consumption rate in real time (Seahorse XFe96); assay type: cell-based, human; conditions: Caco-2, 100 µM; for Effect on max OCR: 24 h (Figures 3C, 4A-D); for Effect on basal mitochondrial OCR / Effect on glycolysis (ECAR) / Effect on glycolysis, cluster in dendrogram: 24 h; for Effect on basal mitochondrial OCR: compared to control (Figures 3B, 4A-D); for Effect on glycolysis (ECAR): compared to control (Figures 3B, 4E-H); for Effect on glycolysis, cluster in dendrogram: clusters of Figure 3C; for Effect on proton leak-driven OCR: 24 h (Figure 4A-D)
Procedure: We previously described how ortho-carbonyl hydroquinone scaffolds inhibit oxidative phosphorylation in breast cancer cells. Since the reduction in glucose utilization and metabolism in intestinal cells is a promising target for T2DM treatment, the effect of these compounds on mitochondrial respiration and glycolysis in Caco-2 cells was determined. […] The effect of ortho-carbonyl hydroquinone series (100 µM) on five parameters of mitochondrial respiration (basal OCR, max OCR, spare capacity, ATP-linked OCR, and proton leak-driven OCR), and two of glycolysis (glycolytic capacity and glycolysis), is represented in a dendrogram (Figure 3C). […] OCR: compounds 1, 6, 7, and 9. […] No correlations between OCR and ECAR parameters, α-glucosidase activity inhibition, or ORAC were observed (Supplementary Figure S1).
In contrast, compound 10 increases the proton leak-OCR and decreases max OCR (Figure 4A–D).
To analyze the extracellular acidification rate (ECAR), Caco-2 cells (10,000 cells/well) were seeded on XFe96 V3-PS multi-well plates and kept for 24 h at 37 °C in 5% CO2 with a DMEM culture medium supplemented with FBS. After 24 h, the cells were stimulated by compounds at 100 μM for 24 h. Then, the culture medium was replaced with assay media (unbuffered DMEM without red phenol, with 4 mM glutamine and 10 mM glucose, pH = 7.4) 1 h before the assay. Glycolysis was evaluated by the sequential injection of 10 mM glucose, 1 µM oligomycin, and 100 mM 2-deoxy-D-glucose (2-DG), and ECAR was analyzed using specific excitation and emission wavelengths of protons (470/530 nm). To study the mitochondrial function, the sequential injection of 1 μM oligomycin, 250 nM FCCP, 1 μM rotenone, and 1 μM antimycin A was added. The oxygen consumption rate (OCR) measurements were made with the specific excitation and emission wavelengths of the fluorescent probes for oxygen (532/650 nm) using a Seahorse XFe96 Analyzer (Seahorse Agilent, USA), and OCR and ECAR data were normalized by protein content/well, which was determined using a BCA kit. Each experiment was performed at least in triplicate. The OCR/ECAR data analysis and dendrograms were performed using XLSTAT software (version 2023.2.1414, Lumivero, New York, NY, USA).

[2] = ORAC assay (oxygen radical absorbance capacity, ORAC-FL); conditions: radical scavenging against peroxyl radicals; mean ± SD of three experiments
Procedure: The radical-scavenging activities of the hydroquinone series against peroxyl radicals were assessed (ORAC assays). […] Similarly, for the series with the gem-diethyl group on ring B (compounds 6–10), compound 6 presents the highest antioxidant capacity (7.0 + 0.3 mol TE/mol compound). […] The replacement of the gem-dimethyl with the gem-diethyl group also decreases the antioxidant capacity.
The antioxidant activity was determined by ORAC (oxygen radical absorbance capacity) assays. Briefly, the antioxidant capacity for ORAC-FL was estimated by measuring the changes in fluorescence after 120 min of reaction with the radical. Assays were performed using a 96-well microplate in a Synergy H1 hybrid multi-mode microplate reader (Biotek, Winooski, VT, USA), and the results were expressed as µmol Trolox 100 g^−1 DW. Three replicates were accomplished for each analysis.

Caco-2 cells [3] = assay: MTT assay, cell proliferation; assay type: cell-based, human; conditions: Caco-2, 24 h treatment, 1-100 µM (Figure 3A)
Procedure: We evaluate the effect of ortho-carbonyl hydroquinones 1–10 on the intestinal Caco-2 cell line at 24 h of treatment.
Caco-2 cells were grown in Dulbecco’s modified Eagle’s Medium/Nutrient Mixture F-12 (D-MEM/F-12), supplemented with 5% fetal bovine serum (FBS), penicillin (100 IU/mL), streptomycin (100 μg/mL), and nonessential amino acid solution 1% (GIBCO, Thermo Fisher Scientific, Grand Island). The culture media contained no exogenous pyruvate supplementation, and the cells were maintained in a humidified atmosphere at 37 °C and 5% CO2.
The cell proliferation was determined using the MTT assay. The cells were incubated in 96-well plates at 7000 cells per well and incubated for 24 h. The cells were treated for 24 h with compounds (1, 5, 10, 30, 50, and 100 μM). After treatment, the culture medium was removed, and the cells were incubated with MTT for 1 h at 37 °C. Finally, 100 μL of DMSO was added and measured by spectrophotometry at 570 nm, as previously described.

Caco-2 cells [4] = assay: Menadione-induced cytosolic (DHE) and mitochondrial (MitoSOX) ROS by flow cytometry; assay type: cell-based, human; conditions: Caco-2, 100 and 200 µM for 24 h, then 25 µM menadione 1 h; for Effect on menadione-induced mitochondrial ROS production: MitoSOX Red
Procedure: Using menadione as an ROS inducer, the preventive effect of compounds 5 and 10 on mitochondrial and cytosolic ROS production was evaluated. No changes in the mitochondrial ROS production were observed (Figure 4I).
The mtROS and ROS levels were measured using MitoSOX® Red Mitochondrial Superoxide (Invitrogen, Carlsbad, CA, USA) and Invitrogen™ Dihydroethidium (Hydroethidine, DHE) probes, respectively. The Caco-2 cells were incubated in 12-well plates at 50,000 cells for 24 h. The cells were treated with compounds 5 and 10 at 100 μM and 200 μM for 24 h. Next, the cells were incubated with 25 μM menadione 25 μM for 1 h, and then the cells were washed with PBS and incubated with MitoSOX Red® (5 µM) or DHE (5 μM) for 30 min. Then, they were recollected, and washed, and the fluorescence was detected by flow cytometry according to Urra et al., 2018 [31].

SMILES	pIC50 (α-glucosidase) (α-glucosidase)	Effect on max OCR (Caco-2 cells [1])	Effect on basal mitochondrial OCR (Caco-2 cells [1])	Effect on glycolysis (ECAR) (Caco-2 cells [1])	Effect on glycolysis, cluster in dendrogram (Caco-2 cells [1])	ORAC [2] [mol TE/mol Compound]	IC50 (α-glucosidase) [µM]	Effect on MTT reduction (Caco-2 cells [3])	Effect on proton leak-driven OCR (Caco-2 cells [1])	Effect on menadione-dependent cytosolic ROS production (Caco-2 cells [4]; DHE)	Effect on menadione-induced mitochondrial ROS production (Caco-2 cells [4])	melting point [°C]	Effect on max OCR (Caco-2 cells [1]; listed as compound 10)
CC1(C)C=CC(=O)c2c(O)ccc(O)c21 [Compound 1, 5,8-Dihydroxy-4,4-dimethylnaphthalen-1(4H)-one]	3.72	strong inhibitory effect on max. OCR	reduces the basal mitoOCR	increases ECAR	glycolysis enhancers								
CC1=CC(C)(C)c2c(O)c(C)c(C)c(O)c2C1=O [Compound 5, 5,8-Dihydroxy-2,4,4,6,7-pentamethylnaphthalen-1(4H)-one]	3.98	reduced effect on max OCR; also recorded: reduces	reduces	reduces the glycolysis; also recorded: significantly reduce the glycolysis	glycolysis inhibitors	0.37 ± 0.01	103	significantly increased the MTT reduction	without affecting	significantly prevented	No changes	199.9 to 201.5	
Cc1c(C)c(O)c2c(c1O)C(=O)C=CC2(C)C [Compound 4, 5,8-Dihydroxy-4,4,6,7-tetramethylnaphthalen-1(4H)-one]	3.61	reduced effect on max OCR	lacking effect on OCR	increases the glycolysis	glycolysis inhibitors	1.05 ± 0.03	245						
CCC1(CC)C=CC(=O)c2c(O)c(C)c(C)c(O)c21 [Compound 9, 4,4-Diethyl-5,8-dihydroxy-6,7-dimethylnaphthalen-1(4H)-one]	3.29	strong inhibitory effect on max. OCR		reduces the glycolysis	glycolysis enhancers	0.83 ± 0.03	> 500					174.9 to 179.8	
CCC1(CC)C=CC(=O)c2c(O)c(C)cc(O)c21 [Compound 8, 4,4-Diethyl-5,8-dihydroxy-7-methylnaphthalen-1(4H)-one]	4.20	reduced effect on max OCR		reduces the glycolysis	glycolysis inhibitors	5.9 ± 0.3	60					198.2	
Cc1cc(O)c2c(c1O)C(C)(C)C=CC2=O [Compound 2, 5,8-Dihydroxy-4,4,6-trimethylnaphthalen-1(4H)-one]	3.85	reduced effect on max OCR		reduces the glycolysis	glycolysis inhibitors	5.5 ± 0.2	140						
CCC1(CC)C=CC(=O)c2c(O)ccc(O)c21 [Compound 6, 4,4-Diethyl-5,8-dihydroxynaphthalen-1(4H)-one]	3.71	strong inhibitory effect on max. OCR	reduces the basal mitoOCR	increases ECAR	glycolysis enhancers	7.0 ± 0.3	195	decreased the MTT reduction					
CCC1(CC)C=CC(=O)c2c(O)cc(C)c(O)c21 [Compound 7, 4,4-Diethyl-5,8-dihydroxy-6-methylnaphthalen-1(4H)-one]	3.96	strong inhibitory effect on max. OCR	lacking effect on OCR	increases the glycolysis	glycolysis enhancers	7.2 ± 0.4	110						
CCC1(CC)C=C(C)C(=O)c2c(O)c(C)c(C)c(O)c21 [Compound 10, 4,4-Diethyl-5,8-dihydroxy-2,6,7-trimethylnaphthalen-1(4H)-one]	4.10	reduced effect on max OCR		reduces the glycolysis; also recorded: significantly reduce the glycolysis	glycolysis inhibitors	0.10 ± 0.01	78	significantly increased the MTT reduction	increases		No changes		decreases
Cc1cc(O)c2c(c1O)C(=O)C=CC2(C)C [Compound 3, 5,8-Dihydroxy-4,4,7-trimethylnaphthalen-1(4H)-one]	3.26	reduced effect on max OCR		reduces the glycolysis	glycolysis inhibitors	3.9 ± 0.1	> 500					204	
